Laboratory results taken from a melting point compilation (Tetko et al.).
Starred links: 1 amine or outer side, 2 acyl side, 3 side chain; linkers in the order of their positions; H or OH if unused. Positions of bridges follow the written chain, without caps; N, C: chain ends. Non-standard residues stand in square brackets, D forms with d. Residues, ends and D or L forms follow the SMILES beside them. *: point of attachment. X6 = CCC(C)C(N[*:1])C(O)CC(=O)OC(C(=O)C(C)C(=O)[*:2])C(C)C; Trt = c1ccc(C(c2ccccc2)(c2ccccc2)*)cc1; NMeY = CN[CH](Cc1ccc(O)cc1)C(=O)O; NMeL = CN[CH](CC(C)C)C(=O)O; Boc = CC(C)(C)OC(=O)*; NHNH2 = NN*

melting point [°C] | Structure (SMILES)
109 | C=CC(CC(O)C(CC1CCCCC1)NC(=O)C(Cc1c[nH]cn1)NC(=O)C(Cc1ccccc1)NC(=O)CN(CCNC(=O)OC(C)(C)C)C(=O)OC(C)(C)C)C(C)C (stereo not drawn)
179 to 183 | CC(C)CC(NC(=O)OCc1ccccc1)C(=O)NC(C)C(=O)NC(CCCN(C(=N)NC(=O)OCc1ccccc1)C(=O)OCc1ccccc1)C(=O)Oc1cccc2ccccc12 (stereo not drawn)
124 to 126 | CCC(C)C1NC(=O)C(NC(=O)C(CC(C)C)N(C)C(C)=O)C(C)OC(=O)C(Cc2ccc(OC)cc2)N(C)C(=O)C2CCCN2C(=O)C(CC(C)C)NC(=O)C(C)C(=O)C(C(C)C)OC(=O)CC1O (stereo not drawn) (Ac-[NMeL]T[X6]LP[NMeY](Me); ester 2-C; configuration not given here)
231 to 233 | CCc1nc(OC)c(NC(=O)N2CCN(c3cc(OC)cc(OC)c3)CC2)cc1C(=O)NC(C)C(=O)Nc1cc(CO)cc(Nc2c3ccccc3nc3ccccc23)c1 (stereo not drawn)
84 to 88 | CC(C)[C@H](NC(=O)N(C)Cc1ccccn1)C(=O)N[C@@H](Cc1ccccc1)[C@H](O)[C@@H](O)[C@H](Cc1ccccc1)NC(=O)[C@@H](NC(=O)N(C)Cc1cscn1)C(C)C
191 | CON=C(C(=O)NC1C(=O)N2C1CSC(c1ccc(Cl)cc1)C2(O)C(=O)OC(C)(C)C)c1csc(NC(c2ccccc2)(c2ccccc2)c2ccccc2)n1 (stereo not drawn)
156 to 160 | CC(C)(C)OC(=O)NCc1ccc(CNC(=O)N2CCN(C(=O)CN3CCC(=O)N(CC(=O)N4CCN(C(=O)NCc5ccc(CNC(=O)OC(C)(C)C)cc5)CC4)CCC3=O)CC2)cc1
239 to 242 | CC(C)CC(NC(=O)OC(C)(C)C)C(=O)NCC(=O)NCC(=O)NC(C)C(=O)NCC(=O)NC(CSC(c1ccccc1)(c1ccccc1)c1ccccc1)C(=O)NC(CCCCNC(=O)OC(C)(C)C)C(=O)NC(CC(N)=O)C(=O)NC(Cc1ccccc1)C(=O)NC(Cc1ccccc1)C(=O)NN (stereo not drawn) (Boc-LGGAGC(Trt)K(Boc)NFF-NHNH2; configuration not given here)
130 to 132 | CC(C)CC1C(=O)OC(Cc2ccccc2)C(=O)N(C)C(CC(C)C)C(=O)OC(C)CN(C)C(CC(C)C)C(=O)OC(Cc2ccccc2)C(=O)N(C)C(CC(C)C)C(=O)OC(C)CN1C (stereo not drawn)
104 | CC(C)OCCOc1ccc(CCCOc2nn(C)cc2CC(=O)O)c(Oc2ncc(C(F)(F)F)cc2Cl)c1
129 to 130 | CC1(C)CC(OC(=O)C(CCCCCCC(Cc2ccccc2)(C(=O)OC2CC(C)(C)NC(C)(C)C2)C(=O)OC2CC(C)(C)NC(C)(C)C2)(Cc2ccccc2)C(=O)OC2CC(C)(C)NC(C)(C)C2)CC(C)(C)N1
141 to 143 | CC[C@H](C)CNC(=O)[C@@H](C[C@H](O)[C@H](CC1CCCCC1)NC(=O)[C@H](Cc1cscn1)NC(=O)[C@H](Cc1cccc2ccccc12)NC(=O)CN1CCOCC1)C(C)(C)O
102 to 105 | CC[C@H](C)CNC(=O)[C@@H](C[C@H](O)[C@H](CC1CCCCC1)NC(=O)[C@H](Cc1cscn1)NC(=O)[C@@H](CC(=O)N1CCOCC1)Cc1cccc2ccccc12)C(C)(C)O

More lines, now with the values behind:

Structure (SMILES) | melting point [°C]
CCCCN(c1nc(N(CCCC)C2CC(C)(C)N(OCC(C)(C)O)C(C)(C)C2)nc(N(CCCC)C2CC(C)(C)N(OCC(C)(C)O)C(C)(C)C2)n1)C1CC(C)(C)N(OCC(C)(C)O)C(C)(C)C1 | 172 to 176
O=C(Cc1ccccc1)Oc1n[nH]c(=O)c2nc3cc(Cl)ccc3c(O)c12 | 278 to 282
O=C(O)c1ccc([Si](CCC(F)(F)C(F)(F)C(F)(F)C(F)(F)C(F)(F)C(F)(F)C(F)(F)C(F)(F)C(F)(F)C(F)(F)F)(CCC(F)(F)C(F)(F)C(F)(F)C(F)(F)C(F)(F)C(F)(F)C(F)(F)C(F)(F)C(F)(F)C(F)(F)F)CCC(F)(F)C(F)(F)C(F)(F)C(F)(F)C(F)(F)C(F)(F)C(F)(F)C(F)(F)C(F)(F)C(F)(F)F)cc1 | 134 to 136
CC1(C)CC(C(O)CNc2nc(NCc3ccc(CNc4nc(NCC(O)C5CC(C)(C)NC(C)(C)C5)nc(NCC(O)C5CC(C)(C)NC(C)(C)C5)n4)cc3)nc(NCC(O)C3CC(C)(C)NC(C)(C)C3)n2)CC(C)(C)N1 (stereo not drawn) | 151 to 156
Nc1cccc(CN2C(=O)C3(COc4cc5c(cc43)OCCO5)c3ccccc32)n1 (stereo not drawn) | 240 to 241
O=C(OCCCOC(=O)C(OCc1ccc(-c2ccc(Cl)cc2)cc1)(C(F)(F)F)C(F)(F)F)C(OCc1ccc(-c2ccc(Cl)cc2)cc1)(C(F)(F)F)C(F)(F)F | 93 to 94
C=CC1=C(C)c2cc3[nH]c(cc4nc(cc5[nH]c(cc1n2)c(C)c5CCC(=O)OC(CN(C)C)CN(C)C)C(CCC(=O)OC(CN(C)C)CN(C)C)=C4C)c(C)c3C=C | 181 to 190
CCCCC(CC)C(=O)Cl (stereo not drawn) | < -75
O=C(O)CCCOc1c(Cl)cccc1Cl | 66 to 67
Oc1ccccc1N1CCOCC1 | 128
O=C(OCc1ccc(OCCCCCCCCCCC2c3c(c4ccccc4c4ccccc34)-c3c2c2ccccc2c2ccccc32)cc1)c1cn(C2CC2)c2cc(F)c(F)cc2c1=O | 71 to 73
Cc1cc(C(C)(C)C)c(O)c(C)c1CCCCCCCCCCCCCCCCCCCOCCCCCCCCCCCCCCCCCCCc1c(C)cc(C(C)(C)C)c(O)c1C | 52
CCCCCCCCCCCCCCCCCC(=O)OCC=C(C)CCC=C(C)CCC=C(C)CCC=C(C)CCC=C(C)CCC=C(C)CCC=C(C)CCC=C(C)CCC=C(C)C | 36 to 37
CCCCCCCCCCCCCCCCCCN(CCCCCCCCCCCCCCCCCC)C(=O)c1cc(NS(=O)(=O)c2cnc(Cl)c(Cl)c2)c2ccccc2c1O | 88 to 89
CCCCC(Cc1cc(C(C)(C)C)c(O)c(C(C)(C)C)c1)(C(=O)OC1CC(C)(C)N(OC2CCCCC2)C(C)(C)C1)C(=O)OC1CC(C)(C)N(OC2CCCCC2)C(C)(C)C1 | 184 to 185
CC(=O)OCC1OC(OC2C(COC(C)=O)OC(OC3C(COC(C)=O)OC(OCCBr)C(N4C(=O)c5ccccc5C4=O)C3OC(C)=O)C(OC(C)=O)C2OC(C)=O)C(OC(C)=O)C(OC(C)=O)C1OC(C)=O (stereo not drawn) | 227 to 229
FC(F)OC(Cl)C(F)(F)F (stereo not drawn) | -108
C=CC1=C(C)c2cc3[nH]c(cc4nc(cc5[nH]c(cc1n2)c(C)c5CCC(=O)OCCCCCCN(C)C)C(CCC(=O)OCCCCCCN(C)C)=C4C)c(C)c3C=C | 160 to 165
COc1cc(OC)c(/C=C/C(c2ccc(OC)c(NC(=O)C(C)(C)O)c2)S(=O)(=O)C(/C=C/c2c(OC)cc(OC)cc2OC)c2ccc(OC)c(NC(=O)C(C)(C)O)c2)c(OC)c1 (stereo not drawn) | 198 to 199
BrCCCCCCCCCCCBr | -11
COC(=O)Nc1cc(C(/C=C/c2c(OC)cc(OC)cc2OC)S(=O)(=O)C(/C=C/c2c(OC)cc(OC)cc2OC)c2ccc(OC)c(NC(=O)OC)c2)ccc1OC (stereo not drawn) | 188 to 191
COC(=O)COc1ccccc1 | 85 to 89
CC(C)(C)c1cc2c(c(C(C)(C)C)c1)OP(OP1Oc3c(cc(C(C)(C)C)cc3C(C)(C)C)Cc3cc(C(C)(C)C)cc(C(C)(C)C)c3O1)Oc1c(cc(C(C)(C)C)cc1C(C)(C)C)C2 | 249 to 252
CC(OC(C)C(I)=C(I)I)C(I)=C(I)I (stereo not drawn) | 43.5 to 44.5
COc1cc(OC)c(/C=C/C(c2ccc(OC)c(NC(=O)C(C)(C)OC(C)=O)c2)S(=O)(=O)C(/C=C/c2c(OC)cc(OC)cc2OC)c2ccc(OC)c(NC(=O)C(C)(C)OC(C)=O)c2)c(OC)c1 (stereo not drawn) | 148 to 150
